Laboratory results published in ChEMBL document CHEMBL5727118, “Benzoic acid derivatives of bile acid as FXR/TGR5 agonists and methods of use thereof” (2019).

Target: T1, Bile acid receptor (Homo sapiens, UniProt Q96RI1)
T1 sequence (Q96RI1 whole entry): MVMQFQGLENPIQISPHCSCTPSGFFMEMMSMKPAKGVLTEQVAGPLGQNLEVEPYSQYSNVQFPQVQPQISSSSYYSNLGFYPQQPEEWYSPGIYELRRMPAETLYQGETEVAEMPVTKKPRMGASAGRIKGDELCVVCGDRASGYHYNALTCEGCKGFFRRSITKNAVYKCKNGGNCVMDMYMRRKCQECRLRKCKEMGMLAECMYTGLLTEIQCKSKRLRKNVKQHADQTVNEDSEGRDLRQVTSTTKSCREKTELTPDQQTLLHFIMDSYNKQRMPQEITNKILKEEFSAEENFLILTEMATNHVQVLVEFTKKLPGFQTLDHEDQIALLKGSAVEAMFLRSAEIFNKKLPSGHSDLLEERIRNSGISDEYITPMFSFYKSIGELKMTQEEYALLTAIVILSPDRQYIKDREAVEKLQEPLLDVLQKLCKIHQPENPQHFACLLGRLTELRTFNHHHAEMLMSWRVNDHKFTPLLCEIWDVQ
Test: FXR Reporter Assay kit purchased from Indigo Bioscience (Catalogue number: IB00601) to determine the potency and efficacy of compound developed by Enanta that can induce FXR activation. The principle application of this reporter assay system is to quantify functional activity of human FXR. The assay utilizes non-human mammalian cells, CHO (Chinese hamster ovary) cells engineered to express human NR1H4 protein (referred to as FXR). Reporter cells also incorporate the cDNA encoding beetle luciferase which catalyzes the substrates and yields photon emission. Luminescence intensity of the reaction is quantified using a plate-reading luminometer, Envision. Reporter Cells include the luciferase reporter gene functionally linked to an FXR responsive promoter. Thus, quantifying changes in luciferase expression in the treated reporter cells provides a sensitive surrogate measure of the changes in FXR activity. […] The assay is according to the manufacturer's instructions. In brief, the assay was performed in white, 96 well plates using final volume of 100 ul containing cells with different doses of compounds. Retrieve Reporter Cells from −80° C. storage. Perform a rapid thaw of the frozen cells by transferring a 10 ml volume of 37° C. cell recovery medium into the tube of frozen cells. Recap the tube of Reporter Cells and immediately place it in a 37° C. water bath for 5-10 minutes. […]
Assay type: cell-based

## CC[C@H]1[C@@H](O)[C@@H]2[C@H](CC[C@]3(C)[C@@H]([C@H](C)C/C=C/c4ccc(F)cc4C(=O)O)CC[C@@H]23)[C@@]2(C)CC[C@@H](O)C[C@@H]12
  EC50: < 100 nM
